These results are taken from patent publication US20230321074A1, “USE OF CHIAURANIB IN COMBINATION WITH IMMUNE CHECKPOINT INHIBITOR IN ANTITUMOR THERAPY” (SHENZHEN CHIPSCREEN BIOSCIENCES, CO., LTD., priority 2020, published 2023).

For data set [1] the following is noted: cited from earlier work.
Data set [2] is described as follows: Body weight, deaths and tolerability in H22 tumor-bearing BALB/c mice. The format is in vivo. As to conditions: H22 model.
In data set [3] the test system is MC38-hPD-L1 colon cancer cells. Briefly: Efficacy on B-hPD-1/hPD-L1 humanized mouse MC38-hPD-L1 colon cancer model. The format is in vivo. To be noted: for inhibitory effect on growth of MC38-hPD-L1 subcutaneously transplanted tumors (experiment summary): at test doses: chiauranib 2.5 mg/kg; for inhibitory effect on growth of MC38-hPD-L1 subcutaneously transplanted tumors (experiment summary) / inhibitory effect on growth of MC38-hPD-L1 subcutaneously transplanted tumors (tumor volume) / inhibitory effect on growth of MC38-hPD-L1 subcutaneously transplanted tumors (tumor weight): reference PD-L1 antibody 1 mg/kg and 3 mg/kg; for Tumor volume (mm^3) before administration: baseline; for Tumor volume (mm^3) before administration / Tumor volume (mm^3) Day 27 of administration in groups / Tumor weight: mean ± standard error; for inhibitory effect on growth of MC38-hPD-L1 subcutaneously transplanted tumors (tumor volume): day 27, P<0.05 vs control; for inhibitory effect on growth of MC38-hPD-L1 subcutaneously transplanted tumors (tumor volume) / inhibitory effect on growth of MC38-hPD-L1 subcutaneously transplanted tumors (tumor weight): chiauranib 2.5 mg/kg; for inhibitory effect on growth of MC38-hPD-L1 subcutaneously transplanted tumors (tumor weight) / Tumor weight: end of experiment; for inhibitory effect on growth of MC38-hPD-L1 subcutaneously transplanted tumors (tumor weight): P<0.05 vs control; for Tumor weight / TGITV (%) / TGITW (%): day 27; for TGITV (%): tumor inhibition rate by tumor volume; for TGITW (%): tumor weight inhibition. On the procedure:
Mouse colon cancer MC38 cells were purchased from Shunran Biology, cultured in an incubator under 5% CO2 at 37° C., and a medium was Dulbecco's Modified Eagle's Medium containing 10% inactivated fetal bovine serum. Biocytogen carried out genetic modification on the MC38 cells to enable the MC38 cells to overexpress human PD-L1, and knocked out mouse PD-L1, and the cells were named MC38-hPD-L1 cells. A reference PD-L1 antibody used in the experiment was constructed and produced by the in-house laboratory according to a sequence of the marketed antibody drug MPDL3280A.
(§1) A certain number of cells were cultured and collected, the MC38-hPD-L1 cells resuspended in PBS were subcutaneously inoculated into B-hPD-1/hPD-L1 humanized mice on the right side at a concentration of 5×10^5 cells/0.1 mL and a dose of 0.1 mL/mouse. After an average tumor volume reached about 104 mm^3, appropriate mice were selected according to tumor volume and body weight, and uniformly divided into 6 experimental groups, 8 mice per group, and administration was carried out on the day of grouping.
Results were recorded, tumor inhibition rates (TGITV) were calculated, and statistical analysis between groups was carried out according to tumor volume.

Data set [4] concerns mouse liver cancer H22 cells. Briefly: Efficacy on female BALB/c mouse models subcutaneously transplanted with mouse liver cancer H22 cell line. Type of data set: in vivo. As to the method:
Mouse liver cancer H22 cells (purchased from CCTCC; cell No. TC-00011) were cultured in an RPMI-1640 medium (purchased from Gibco) containing 10% fetal bovine serum. H22 cells in exponential growth phase were collected, resuspended in PBS to an appropriate concentration, and subcutaneously inoculated into mice. Female mice were subcutaneously inoculated with 1×10^6 H22 cells on the right front side. After tumors grew to an average volume of 104 mm^3, the mice were randomly grouped (see Table 1) according to the tumor size, administration was carried out on the day of grouping, and the day of inoculation of tumor cells was defined as day 0.
On the 19th day of the experiment (day 15 of administration in groups), an average tumor volume of the solvent control group was measured to be 2060.99 mm^3, the experiment was completed, photos of the tumor-bearing mice were taken, the tumors were taken out and weighed, and photos of the tumors were taken. A formula for calculating tumor volume: tumor volume (mm^3)=1/2×(a×b^2) (where, a represents a long diameter, and b represents a short diameter).

In data set [5] the test system is spleen lymphocyte subsets CD4 and CD8. Briefly: Proportions of spleen lymphocyte subsets in CT-26 tumor-bearing mice (flow cytometry). The format is in vivo, mouse. To be noted: CT-26 tumor-bearing Balb/c mice; chiauranib 20 mg/kg intragastric once a day; PD-1 antibody 10 mg/kg i.p. twice a week; after last administration on 14th day. As to the method:
8 days after cell inoculation, tumors grew to an average volume of about 100 mm^3, and the tumor-bearing mice were randomly divided into four groups (9 mice per group), that is, a solvent control group, a chiauranib group (20 mg/kg, intragastric administration, once a day), a PD-1 antibody group (10 mg/kg, intraperitoneal injection, twice a week), and a chiauranib and PD-1 antibody combined administration group, marked, raised in separate cages, administered daily in groups, and observed for tumor formation. The longest diameter (length) and the widest diameter (width) perpendicular to the longest diameter of the tumor was measured by using a vernier caliper every 2 days, and the tumor volume was calculated according to a formula: TS=length×(width)^2/2, and recorded. The mice were subjected to intragastric administration once a day regularly, and after the last administration on the 14th day, the mice were sacrificed to take the spleens and make a single cell suspension. 1×10^6 spleen cells were taken and stained with fluorescein labelled anti-CD4 and CD8 antibodies (1:200) at 4° C. for 30 min. After being washed, the cells were resuspended in PBS, and detected by using a flow cytometer FACSCanto II. […]
(A flow cytometer gives signals particle by particle.)

In data set [6] the test system is colonic cancer cell line CT-26. Briefly: Efficacy on tumor Balb/c mouse models inoculated with colonic cancer cell line CT-26 (tumor volume). The format is in vivo. As to conditions: CT-26 in Balb/c mice; chiauranib 20 mg/kg intragastric once a day; PD-1 antibody 10 mg/kg i.p. twice a week; vs solvent control. As to the method:
A large number of CT-26 cells were cultured and kept in a logarithmic growth state. After the number of cells reached a required level, the cells were digested and collected by trypsin, thoroughly washed twice with a large amount of PBS to remove trypsin and serum components, centrifuged at room temperature at 800 rpm for 10 min, and a supernatant was discarded. The cells were resuspended in DMEM without FBS, and the cell concentration was adjusted to 5×10^6 cells/mL.
Under sterile conditions, the cell suspension was injected subcutaneously into the back of Balb/c mice at 100 μL/injection, one injection per mouse. […]
8 days after cell inoculation, tumors grew to an average volume of about 100 mm^3, and the tumor-bearing mice were randomly divided into four groups (9 mice per group), that is, a solvent control group, a chiauranib group (20 mg/kg, intragastric administration, once a day), a PD-1 antibody group (10 mg/kg, intraperitoneal injection, twice a week), and a chiauranib and PD-1 antibody combined administration group, marked, raised in separate cages, administered daily in groups, and observed for tumor formation. The longest diameter (length) and the widest diameter (width) perpendicular to the longest diameter of the tumor was measured by using a vernier caliper every 2 days, and the tumor volume was calculated according to a formula: TS=length×(width)^2/2, and recorded. […]

Data set [7] in a line: Body weight and tolerability in B-hPD-1/hPD-L1 humanized mice transplanted with MC38-hPD-L1. Type of data set: in vivo, mouse. To be noted: for Body weight (g) before administration / Body weight change (g) Day 27 of administration / Body weight (g) Day 27 of administration in groups: MC38-hPD-L1 model; for Body weight (g) before administration: baseline; for Body weight (g) before administration / Body weight (g) Day 27 of administration in groups: mean ± standard error; for toxic side effects on animals / safety: at test doses: chiauranib 2.5 mg/kg, reference PD-L1 antibody 1 mg/kg and 3 mg/kg. On the procedure: as §1

[8] abbreviates: chiauranib 5 mg/kg p.o. QD, mouse PD-1 antibody 5 mg/kg i.p. BIW.
[9] abbreviates: groups G2, G3, G5 (chiauranib 2.5 mg/kg; Reference PD-L1 antibody 1 mg/kg).
Setting [10] is: chiauranib 2.5 mg/kg p.o. QD, Reference PD-L1 antibody 1 mg/kg i.p. Q3D.
[11] abbreviates: Reference PD-L1 antibody 3 mg/kg i.p. Q3D, chiauranib 2.5 mg/kg p.o. QD in the combination.
[12] abbreviates: groups G4, G6 (Reference PD-L1 antibody 3 mg/kg; chiauranib 2.5 mg/kg in the combination).

“And” between values parts separate entries of the source, which are not always exact repeats. Identical values can stand only once. “Also recorded” adds a separate entry of the source.

On to “avelumab+BSC: PD-L1 antibody drug avelumab (Bavencio, Pfizer and Merck KGaA) plus best supportive care”, for which the “median OS” value in data set [1] (patients with advanced UC after platinum-based chemotherapy) was 21.4 months. In addition, in data set [1] (vs BSC alone, 95% CI 0.56, 0.86, 1-sided p=0.0005, all enrolled patients), the “overall survival (OS) hazard ratio [HR]” value is 0.69. Besides, the “increase of OS” value in data set [1] (vs BSC group) was “more than 7 months”.
Turning to `COc1ccc2c(Oc3ccc4c(C(=O)Nc5ccccc5N)cccc4c3)ccnc2c1` [chiauranib, Chiauranib], in data set [2] (setting [8]), the “Body weight change rate (%) Day 19” value worked out at 5.59% and the “Number of animals of experiment at the beginning/end” value was 10/10. In addition, the “Average body weight (g) Day 5” value in data set [2] (day of grouping, baseline, mean ± standard error) was 21.3 ± 0.3 g. The “Average body weight (g) Day 19” value in data set [2] (end of experiment, chiauranib 5 mg/kg p.o. QD, mouse PD-1 antibody 5 mg/kg i.p. BIW, mean ± standard error) was found to be 22.4 ± 0.3 g. In addition, in data set [3], the “inhibitory effect on growth of MC38-hPD-L1 subcutaneously transplanted tumors (experiment summary)” value is on record as “significant inhibitory effects”, the “inhibitory effect on growth of MC38-hPD-L1 subcutaneously transplanted tumors (tumor volume)” value is on record as “significant inhibitory effects” and the “inhibitory effect on growth of MC38-hPD-L1 subcutaneously transplanted tumors (tumor weight)” value is reported as “significant inhibitory effects”. Besides, the “Tumor volume (mm^3) before administration” value in data set [3] (setting [9]) was 104 ± 4 mm^3. Also, in data set [3] (setting [10]), the “Tumor volume (mm^3) Day 27 of administration in groups” value (shortened to “Tumor volume … in groups”) was 1021 ± 158 mm^3, the “Tumor weight” value is 0.837 ± 0.108 g, the “TGITV (%)” value is 58.6% and the “TGITW (%)” value came out at 61.7%. Moreover, the “TGI (%) Day 19 (relative tumor inhibition rate)” value in data set [4] ((1 - T/C) x 100%, chiauranib 5 mg/kg p.o. QD, mouse PD-1 antibody 5 mg/kg i.p. BIW) is listed as 26%. Besides, in data set [4] (TRTV/CRTV x 100%, chiauranib 5 mg/kg p.o. QD, mouse PD-1 antibody 5 mg/kg i.p. BIW), the “T/C (%) Day 19” value came out at 74%. Besides, in data set [4] (day 15 of administration, chiauranib 5 mg/kg p.o. QD x 15 days, mouse PD-1 antibody 5 mg/kg i.p. BIW x 5, mean ± standard error), the “Tumor volume (mm^3) Day 19” value is 1527.40 mm^3 and 1527.40 ± 145.56 mm^3. Also, in data set [4] (day of grouping, baseline before treatment, mean ± standard error), the “Tumor volume (mm^3) Day 5” value was 104.09 ± 2.73 mm^3. The molecule also returned an RTV in data set [4] (relative tumor volume Vt/V0, Day 19, chiauranib 5 mg/kg p.o. QD, mouse PD-1 antibody 5 mg/kg i.p. BIW) of 14.51. Also, in data set [5], the “average proportion of spleen lymphocyte subset CD4” value came to 9.9% and the “average proportion of spleen lymphocyte subset CD8” value turned out to be 6.1%. Further, the “relative tumor inhibition rate” value in data set [6] came out at 39%. In addition, the “Body weight (g) before administration” value in data set [7] (setting [9]) worked out at 21.1 ± 0.3 g. Moreover, in data set [7] (setting [10]), the “Body weight change (g) Day 27 of administration” value is reported as “+3.1 g” and the “Body weight (g) Day 27 of administration in groups” value (from here on “Body weight … in groups”) came out at 24.2 ± 0.6 g. For the same molecule, the “toxic side effects on animals / safety” value in data set [7] is “do not produce toxic side effects to animals; also recorded: do not produce toxic and side effects on animals”.
On to “Reference PD-L1 antibody: constructed and produced by the in-house laboratory according to a sequence of the marketed antibody drug MPDL3280A”, for which, in data set [3] (setting [11]), the “Tumor volume … in groups” value came to 1207 ± 195 mm^3, the “Tumor weight” value is given as 1.182 ± 0.199 g, the “TGITV (%)” value is 50.3% and the “TGITW (%)” value is on record as 45.9%. Besides, in data set [3], the “inhibitory effect on growth of MC38-hPD-L1 subcutaneously transplanted tumors (experiment summary)” value is “significant inhibitory effects”, the “inhibitory effect on growth of MC38-hPD-L1 subcutaneously transplanted tumors (tumor volume)” value was “significant inhibitory effects” and the “inhibitory effect on growth of MC38-hPD-L1 subcutaneously transplanted tumors (tumor weight)” value is recorded as “significant inhibitory effects”. Moreover, the “Tumor volume (mm^3) before administration” value in data set [3] (setting [9]) came out at 104 ± 4 mm^3. Moreover, in data set [3] (setting [12]), the “Tumor volume (mm^3) before administration” value is given as 104 ± 3 mm^3. In data set [3] (setting [10]), the “Tumor volume … in groups” value was found to be 1469 ± 144 mm^3, the “Tumor weight” value stood at 1.316 ± 0.106 g, the “TGITV (%)” value is recorded as 38.5% and the “TGITW (%)” value is on record as 39.8%. In data set [7] (setting [11]), the “Body weight change (g) Day 27 of administration” value was “+3.7 g” and the “Body weight … in groups” value came to 25.0 ± 0.5 g. Moreover, in data set [7] (setting [9]), the “Body weight (g) before administration” value is recorded as 21.6 ± 0.3 g. In addition, the “Body weight (g) before administration” value in data set [7] (setting [12]) amounted to 21.3 ± 0.5 g. In data set [7] (setting [10]), the “Body weight change (g) Day 27 of administration” value was “+3.8 g” and the “Body weight … in groups” value came out at 25.4 ± 0.4 g. In data set [7], the “toxic side effects on animals / safety” value was “do not produce toxic side effects to animals; also recorded: do not produce toxic and side effects on animals”.
